Source: PMC6429502, “Synthesis and AChE-Inhibitory Activity of New Benzimidazole Derivatives” (Molecules, 2019)
“Also recorded” adds a separate entry of the source. Read-outs that look alike come from different tables or passages of the source.

Columns and labels:
Format in all cases: biochemical
AChE [1] = target: T1, AChE (Electrophorus electricus, UniProt O42275); assay: AChE inhibition, modified Ellman's method; details: for IC50: determined using 10^−3–10^−9 M concentrations
BChE = test system: BChE
Experimental: New benzimidazole-triazole derivatives were designed, synthesized, and evaluated for their potential to inhibit AChE and BChE. First, all the synthesized compounds were tested at 10^−3 M and 10^−4 M concentrations.
The inhibitory activities of the compounds against AChE and BChE were determined in 96-well plates by modified Ellman’s method as defined in our previous studies. Donepezil and tacrine were used as reference drugs. A robotic system, Biotek Precision XS (Winooski, VT, USA), was used for all pipetting processes in the enzyme inhibition assay. Measurements of the percentage inhibition were carried out at 412 nm by using a BioTek-Synergy H1 microplate reader (Winooski, VT, USA). Inhibition potencies of synthesized compounds and IC50 of selected derivatives were calculated as reported previously.

AChE [2] = target: T1, AChE; assay: Enzyme kinetic studies of AChE inhibition (Lineweaver-Burk plots, secondary plots); details: 2 × IC50, IC50 and IC50/2, substrate 600 µM to 18.75 µM
Experimental: Enzyme kinetic studies were carried out in order to determine the mechanism of AChE inhibition. The type of inhibition was forecast using linear Lineweaver-Burk plots. […] The initial velocity measurements were recorded by using different substrate concentrations ranging from 600 µM to 18.75 µM for AChE enzyme. The secondary plots of the Km/Vmax (slope) versus varying concentrations were used to calculate Ki (intercept on the x-axis) values of compounds [35]. The graphical analyses of the steady-state inhibition data for AChE enzyme are shown in Figure 1 and Figure 2, respectively.
Reversible inhibition consists of the following subtypes: mixed-type, competitive, uncompetitive, or noncompetitive. These types of inhibition can be determined with the help of Lineweaver-Burk plots. […] Namely, both compounds can bind to the free enzyme or the enzyme-substrate complex. […] It is known that these interactions occur quickly and can be easily reversed. Therefore, the enzyme and inhibitor complex is rapidly degraded immediately prior to irreversible inhibition. […] As a result, enzyme kinetics studies have shown the biological importance of compounds 3d and 3h due to their mixed type forces, unlike irreversible enzyme inhibitors.
Enzyme kinetic studies were performed for compounds 3d and 3h in order to determine the inhibition type on AChE. […]

T1 sequence (O42275 24-633): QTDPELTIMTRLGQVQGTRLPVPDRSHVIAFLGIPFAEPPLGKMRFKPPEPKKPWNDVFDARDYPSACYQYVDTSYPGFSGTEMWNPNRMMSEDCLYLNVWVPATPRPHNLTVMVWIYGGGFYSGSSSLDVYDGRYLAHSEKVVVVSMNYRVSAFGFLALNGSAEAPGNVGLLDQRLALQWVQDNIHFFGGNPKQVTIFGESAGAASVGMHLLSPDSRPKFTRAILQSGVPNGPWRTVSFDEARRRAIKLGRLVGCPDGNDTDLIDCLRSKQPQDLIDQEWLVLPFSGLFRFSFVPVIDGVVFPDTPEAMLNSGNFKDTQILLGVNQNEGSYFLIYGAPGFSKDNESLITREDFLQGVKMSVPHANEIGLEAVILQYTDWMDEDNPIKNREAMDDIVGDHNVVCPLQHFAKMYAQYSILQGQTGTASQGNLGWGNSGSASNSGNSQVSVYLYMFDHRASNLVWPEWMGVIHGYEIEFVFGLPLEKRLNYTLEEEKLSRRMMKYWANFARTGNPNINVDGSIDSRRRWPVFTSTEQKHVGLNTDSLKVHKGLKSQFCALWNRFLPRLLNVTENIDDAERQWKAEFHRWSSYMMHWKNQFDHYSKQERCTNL

## CCn1c(SCC(=O)c2ccc(C#N)cc2)nnc1-c1ccc(-c2nc3cc(Cl)ccc3[nH]2)cc1 [3e, 2-(4-(4-Ethyl-5-(2-(4-cyanophenyl)-2-oxo-ethylthio)-4H-1,2,4-triazol-3yl)-phenyl)-5(6)-chloro-1H-benz-imidazole]
AChE [1]; 10^−3 M
  % Inhibition AChE: 77.29 ± 1.06%
AChE [1]; 10^−4 M
  % Inhibition AChE: 41.22 ± 0.84%
BChE; 10^−3 M
  % Inhibition BChE: 38.22 ± 0.63%
BChE; 10^−4 M
  % Inhibition BChE: 22.41 ± 0.47%

## CCn1c(SCC(=O)c2ccc(C)cc2)nnc1-c1ccc(-c2nc3cc(F)ccc3[nH]2)cc1 [3o, 2-(4-(4-Ethyl-5-(2-(4-methylphenyl)-2-oxo-ethylthio)-4H-1,2,4-triazol-3yl)-phenyl)-5(6)-fluoro-1H-benz-imidazole]
AChE [1]; 10^−3 M
  % Inhibition AChE: 28.06 ± 0.33%
AChE [1]; 10^−4 M
  % Inhibition AChE: 19.22 ± 0.30%
BChE; 10^−3 M
  % Inhibition BChE: 25.99 ± 0.38%
BChE; 10^−4 M
  % Inhibition BChE: 20.08 ± 0.46%

## CCn1c(SCC(=O)c2ccc(Br)cc2)nnc1-c1ccc(-c2nc3cc(Cl)ccc3[nH]2)cc1 [3f, 2-(4-(4-Ethyl-5-(2-(4-bromophenyl)-2-oxo-ethylthio)-4H-1,2,4-triazol-3yl)-phenyl)-5(6)-chloro-1H-benz-imidazole]
AChE [1]; 10^−3 M
  % Inhibition AChE: 47.22 ± 0.67%
AChE [1]; 10^−4 M
  % Inhibition AChE: 24.08 ± 0.48%
BChE; 10^−3 M
  % Inhibition BChE: 29.15 ± 0.59%
BChE; 10^−4 M
  % Inhibition BChE: 17.88 ± 0.40%

## CCn1c(SCC(=O)c2ccc(C#N)cc2)nnc1-c1ccc(-c2nc3cc(F)ccc3[nH]2)cc1 [3m, 2-(4-(4-Ethyl-5-(2-(4-cyanophenyl)-2-oxo-ethylthio)-4H-1,2,4-triazol-3yl)-phenyl)-5(6)-fluoro-1H-benz-imidazole]
AChE [1]; 10^−3 M
  % Inhibition AChE: 59.03 ± 0.88%
AChE [1]; 10^−4 M
  % Inhibition AChE: 39.26 ± 0.46%
BChE; 10^−3 M
  % Inhibition BChE: 48.11 ± 0.38%
BChE; 10^−4 M
  % Inhibition BChE: 20.66 ± 0.45%

## CCn1c(SCC(=O)c2ccc(C)cc2)nnc1-c1ccc(-c2nc3cc(Cl)ccc3[nH]2)cc1 [3g, 2-(4-(4-Ethyl-5-(2-(4-methylphenyl)-2-oxo-ethylthio)-4H-1,2,4-triazol-3yl)-phenyl)-5(6)-chloro-1H-benz-imidazole]
AChE [1]; 10^−3 M
  % Inhibition AChE: 37.20 ± 0.68%
AChE [1]; 10^−4 M
  % Inhibition AChE: 18.33 ± 0.38%
BChE; 10^−3 M
  % Inhibition BChE: 31.89 ± 0.99%
BChE; 10^−4 M
  % Inhibition BChE: 24.75 ± 0.95%

## Cn1c(SCC(=O)c2ccc(C#N)cc2)nnc1-c1ccc(-c2nc3cc(Cl)ccc3[nH]2)cc1 [3a, 2-(4-(4-Methyl-5-(2-(4-cyanophenyl)-2-oxo-ethylthio)-4H-1,2,4-triazol-3yl)-phenyl)-5(6)-chloro-1H-benz-imidazole]
AChE [1]; 10^−3 M
  % Inhibition AChE: 68.18 ± 1.05%
AChE [1]; 10^−4 M
  % Inhibition AChE: 47.26 ± 0.62%
BChE; 10^−3 M
  % Inhibition BChE: 40.28 ± 0.98%
BChE; 10^−4 M
  % Inhibition BChE: 25.13 ± 0.56%

## CCn1c(SCC(=O)c2ccc(O)c(O)c2)nnc1-c1ccc(-c2nc3cc(Cl)ccc3[nH]2)cc1 [3h, 2-(4-(4-Ethyl-5-(2-(3,4-dihydroxyphenyl)-2-oxo-ethylthio)-4H-1,2,4-triazol-3yl)-phenyl)-5(6)-chloro-1H-benzimidazole]
AChE [1]; 10^−3 M
  % Inhibition AChE: 98.25 ± 1.12%
AChE [1]; 10^−5 M
  % Inhibition of AChE: 90.23 ± 1.03%
AChE [1]; 10^−6 M
  % Inhibition of AChE: 81.25 ± 1.08%
AChE [1]; 10^−7 M
  % Inhibition of AChE: 65.32 ± 0.97%
AChE [1]; 10^−8 M
  % Inhibition of AChE: 44.28 ± 0.71%
AChE [1]; 10^−9 M
  % Inhibition of AChE: 17.20 ± 0.58%
BChE; 10^−3 M
  % Inhibition BChE: 61.26 ± 0.90%
BChE; 10^−4 M
  % Inhibition BChE: 35.20 ± 0.42%
AChE [2]
  type of AChE inhibition: mixed type inhibition; also recorded: reversible inhibitors; also recorded: reversible and mixed-type

## Cc1ccc(C(=O)CSc2nnc(-c3ccc(-c4nc5cc(F)ccc5[nH]4)cc3)n2C)cc1 [3k, 2-(4-(4-Methyl-5-(2-(4-methylphenyl)-2-oxo-ethylthio)-4H-1,2,4-triazol-3yl)-phenyl)-5(6)-fluoro-1H-benz-imidazole]
AChE [1]; 10^−3 M
  % Inhibition AChE: 42.29 ± 0.71%
AChE [1]; 10^−4 M
  % Inhibition AChE: 27.88 ± 0.67%
BChE; 10^−3 M
  % Inhibition BChE: 36.17 ± 0.93%
BChE; 10^−4 M
  % Inhibition BChE: 21.16 ± 0.97%

## CCn1c(SCC(=O)c2ccc(O)c(O)c2)nnc1-c1ccc(-c2nc3cc(F)ccc3[nH]2)cc1 [3p, 2-(4-(4-Ethyl-5-(2-(3,4-dihydroxyphenyl)-2-oxo-ethylthio)-4H-1,2,4-triazol-3yl)-phenyl)-5(6)-fluoro-1H-benzimidazole]
AChE [1]; 10^−3 M
  % Inhibition AChE: 87.26 ± 1.17%
AChE [1]; 10^−5 M
  % Inhibition of AChE: 77.48 ± 1.98%
AChE [1]; 10^−6 M
  % Inhibition of AChE: 71.62 ± 1.08%
AChE [1]; 10^−7 M
  % Inhibition of AChE: 47.83 ± 0.97%
AChE [1]; 10^−8 M
  % Inhibition of AChE: 39.33 ± 0.67%
AChE [1]; 10^−9 M
  % Inhibition of AChE: 15.47 ± 0.64%
AChE [1]
  IC50: 140 ± 5.1 nM
BChE; 10^−3 M
  % Inhibition BChE: 53.19 ± 0.46%
BChE; 10^−4 M
  % Inhibition BChE: 31.44 ± 0.38%

## Cc1ccc(C(=O)CSc2nnc(-c3ccc(-c4nc5cc(Cl)ccc5[nH]4)cc3)n2C)cc1 [3c, 2-(4-(4-Methyl-5-(2-(4-methylphenyl)-2-oxo-ethylthio)-4H-1,2,4-triazol-3yl)-phenyl)-5(6)-chloro-1H-benz-imidazole]
AChE [1]; 10^−3 M
  % Inhibition AChE: 39.18 ± 0.71%
AChE [1]; 10^−4 M
  % Inhibition AChE: 17.89 ± 0.54%
BChE; 10^−3 M
  % Inhibition BChE: 26.11 ± 0.74%
BChE; 10^−4 M
  % Inhibition BChE: 20.21 ± 0.61%

## Cn1c(SCC(=O)c2ccc(O)c(O)c2)nnc1-c1ccc(-c2nc3cc(Cl)ccc3[nH]2)cc1 [3d, 2-(4-(4-Methyl-5-(2-(3,4-dihydroxyphenyl)-2-oxo-ethylthio)-4H-1,2,4-triazol-3yl)-phenyl)-5(6)-chloro-1H-benzimidazole]
AChE [1]; 10^−3 M
  % Inhibition AChE: 98.55 ± 1.17%
AChE [1]; 10^−5 M
  % Inhibition of AChE: 87.26 ± 1.28%
AChE [1]; 10^−6 M
  % Inhibition of AChE: 78.85 ± 1.19%
AChE [1]; 10^−7 M
  % Inhibition of AChE: 67.18 ± 0.92%
AChE [1]; 10^−8 M
  % Inhibition of AChE: 45.32 ± 0.82%
AChE [1]; 10^−9 M
  % Inhibition of AChE: 15.75 ± 0.48%
BChE; 10^−3 M
  % Inhibition BChE: 51.19 ± 0.99%
BChE; 10^−4 M
  % Inhibition BChE: 38.12 ± 0.41%
AChE [2]
  type of AChE inhibition: mixed type inhibition; also recorded: reversible inhibitors; also recorded: reversible and mixed-type

## Cn1c(SCC(=O)c2ccc(Br)cc2)nnc1-c1ccc(-c2nc3cc(Cl)ccc3[nH]2)cc1 [3b, 2-(4-(4-Methyl-5-(2-(4-bromophenyl)-2-oxo-ethylthio)-4H-1,2,4-triazol-3yl)-phenyl)-5(6)-chloro-1H-benz-imidazole]
AChE [1]; 10^−3 M
  % Inhibition AChE: 44.20 ± 0.87%
AChE [1]; 10^−4 M
  % Inhibition AChE: 26.18 ± 0.63%
BChE; 10^−3 M
  % Inhibition BChE: 28.15 ± 0.97%
BChE; 10^−4 M
  % Inhibition BChE: 18.42 ± 0.88%

## CCn1c(SCC(=O)c2ccc(Br)cc2)nnc1-c1ccc(-c2nc3cc(F)ccc3[nH]2)cc1 [3n, 2-(4-(4-Ethyl-5-(2-(4-bromophenyl)-2-oxo-ethylthio)-4H-1,2,4-triazol-3yl)-phenyl)-5(6)-fluoro-1H-benz-imidazole]
AChE [1]; 10^−3 M
  % Inhibition AChE: 49.27 ± 0.55%
AChE [1]; 10^−4 M
  % Inhibition AChE: 30.21 ± 0.49%
BChE; 10^−3 M
  % Inhibition BChE: 27.10 ± 0.53%
BChE; 10^−4 M
  % Inhibition BChE: 18.77 ± 0.42%

## Cn1c(SCC(=O)c2ccc(C#N)cc2)nnc1-c1ccc(-c2nc3cc(F)ccc3[nH]2)cc1 [3i, 2-(4-(4-Methyl-5-(2-(4-cyanophenyl)-2-oxo-ethylthio)-4H-1,2,4-triazol-3yl)-phenyl)-5(6)-fluoro-1H-benz-imidazole]
AChE [1]; 10^−3 M
  % Inhibition AChE: 61.22 ± 1.02%
AChE [1]; 10^−4 M
  % Inhibition AChE: 38.28 ± 0.67%
BChE; 10^−3 M
  % Inhibition BChE: 43.51 ± 0.78%
BChE; 10^−4 M
  % Inhibition BChE: 18.49 ± 0.50%

## Cn1c(SCC(=O)c2ccc(O)c(O)c2)nnc1-c1ccc(-c2nc3cc(F)ccc3[nH]2)cc1 [3l, 2-(4-(4-Methyl-5-(2-(3,4-dihydroxyphenyl)-2-oxo-ethylthio)-4H-1,2,4-triazol-3yl)-phenyl)-5(6)-fluoro-1H-benzimidazole]
AChE [1]; 10^−3 M
  % Inhibition AChE: 94.58 ± 1.74%
AChE [1]; 10^−5 M
  % Inhibition of AChE: 73.18 ± 1.17%
AChE [1]; 10^−6 M
  % Inhibition of AChE: 68.20 ± 0.97%
AChE [1]; 10^−7 M
  % Inhibition of AChE: 48.11 ± 0.61%
AChE [1]; 10^−8 M
  % Inhibition of AChE: 32.29 ± 0.58%
AChE [1]; 10^−9 M
  % Inhibition of AChE: 18.77 ± 0.37%
AChE [1]
  IC50: 169 ± 7.2 nM
BChE; 10^−3 M
  % Inhibition BChE: 55.43 ± 0.47%
BChE; 10^−4 M
  % Inhibition BChE: 29.88 ± 0.38%

## Cn1c(SCC(=O)c2ccc(Br)cc2)nnc1-c1ccc(-c2nc3cc(F)ccc3[nH]2)cc1 [3j, 2-(4-(4-Methyl-5-(2-(4-bromophenyl)-2-oxo-ethylthio)-4H-1,2,4-triazol-3yl)-phenyl)-5(6)-fluoro-1H-benz-imidazole]
AChE [1]; 10^−3 M
  % Inhibition AChE: 48.51 ± 0.88%
AChE [1]; 10^−4 M
  % Inhibition AChE: 18.39 ± 0.60%
BChE; 10^−3 M
  % Inhibition BChE: 29.64 ± 0.87%
BChE; 10^−4 M
  % Inhibition BChE: 21.44 ± 0.70%
